Measured values reported in patent US10857138B2, “Pharmaceutical compositions comprising antibacterial agents” (WOCKHARDT LIMITED, priority 2014, dated 2020).

Experiments:
[1] = test system: Klebsiella pneumoniae NCTC 13443 strain producing NDM-1, SHV and TEM beta-lactamase enzymes; test: Time kill study against K. pneumoniae NCTC 13443; type: cell-based; settings: for Bacterial count (Log10CFU/ml) 2 hours / Bacterial count (Log10CFU/ml) 4 hours / Bacterial count (Log10CFU/ml) 6 hours / Bacterial count (Log10CFU/ml) 8 hours: each agent at 4 mcg/ml, alone or in combination; for Effect on bacterial count when used alone: used alone at 4 μg/ml, throughout the duration of the study
Experimental: (§1) In a typical time kill study, the freshly grown cultures were diluted to the required cell density (initial starting inoculum) in Cation adjusted Muller Hinton broth medium (BD, USA). The antibacterial agents (either alone or in combination) at the required concentrations were added into the culture-containing medium. The samples were incubated under shaking condition (120 rpm) at 37° C. Enumeration of viable bacterial count was done every 2 hour by diluting in normal saline and plating on to the Tryptic Soya Agar plates (BD, USA). The plates were incubated for 24 hours to arrive at the viable bacterial count. […] In general, the decrease of 1 Log CFU/ml, corresponds to 90% killing of bacteria. Similarly, 2 Log CFU/ml reductions indicates to 99% killing of bacteria and 3 Log CFU/ml reductions is equal to 99.9% killing of bacteria.
(§2) The assay without any antibacterial agent was taken as control.

[2] = test system: Klebsiella pneumoniae B 88 strain producing NDM-1, SHV, TEM and CTXM beta-lactamase enzymes; test: Time kill study against K. pneumoniae B 88; type: cell-based; design: Effect on bacterial count when used alone: dose or concentration left out as unconfirmed; settings: for Bacterial count (Log10CFU/ml) 2 hours / Bacterial count (Log10CFU/ml) 4 hours / Bacterial count (Log10CFU/ml) 6 hours / Bacterial count (Log10CFU/ml) 8 hours: each agent at 4 mcg/ml, alone or in combination; for Effect on bacterial count when used alone: used alone at 4 mcg/ml, throughout the duration of the study
Experimental: as §1, §2

Row | SMILES | Bacterial count (Log10CFU/ml) 2 hours [1] [Log10CFU/ml] | Bacterial count (Log10CFU/ml) 4 hours [1] [Log10CFU/ml] | Bacterial count (Log10CFU/ml) 6 hours [1] [Log10CFU/ml] | Bacterial count (Log10CFU/ml) 8 hours [1] [Log10CFU/ml] | Effect on bacterial count when used alone [1] | Bacterial count (Log10CFU/ml) 2 hours [2] [Log10CFU/ml] | Bacterial count (Log10CFU/ml) 4 hours [2] [Log10CFU/ml] | Bacterial count (Log10CFU/ml) 6 hours [2] [Log10CFU/ml] | Bacterial count (Log10CFU/ml) 8 hours [2] [Log10CFU/ml] | Effect on bacterial count when used alone [2]
1 | NC(=O)c1nnc([C@@H]2CC[C@@H]3CN2C(=O)N3OS(=O)(=O)O)o1 [Compound B] | 8.3 | 8.5 | 8.8 | 8.9 | not effective to decrease the bacterial count | 7.98 | 8.2 | 8.50 | 8.9 | not effective to decrease the bacterial count
2 | C[C@H]1[C@H](NC(=O)/C(=N\OC(C)(C)C(=O)O)c2csc(N)n2)C(=O)N1S(=O)(=O)O [Aztreonam, reference compound] | 8.38 | 8.65 | 9.02 | 9.55 | not effective to decrease the bacterial count | 8.16 | 8.7 | 8.88 | 9.04 | not effective to decrease the bacterial count
3 | O=C1N2C[C@@H](CC[C@H]2c2nnc(CC3CNC3)o2)N1OS(=O)(=O)O [Compound D] | 8.3 | 8.55 | 8.95 | 9.2 | not effective to decrease the bacterial count | 8.05 | 8.3 | 8.7 | 8.8 | not effective to decrease the bacterial count
4 | O=C(NOC[C@@H]1CCCCN1)[C@@H]1CC[C@@H]2CN1C(=O)N2OS(=O)(=O)O [Compound H, (2S,5R)-7-Oxo-N-[(2S)-piperidine-2-ylmethyloxy]-6-(sulfooxy)-1,6-diazabicyclo[3.2.1]octane-2-carboxamide] | 8.35 | 8.48 | 8.9 | 9.1 | not effective to decrease the bacterial count | 8.15 | 8.3 | 8.65 | 8.98 | not effective to decrease the bacterial count
5 | O=C(NNC(=O)[C@@H]1CC[C@@H]2CN1C(=O)N2OS(=O)(=O)O)[C@@H]1CCCNC1 [Compound E, (2S,5R)-7-Oxo-6-sulphooxy-2-[N′—((R)-piperidine-3-carbonyl)-hydrazinocarbonyl]-1,6-diaza-bicyclo[3.2.1]octane] | 8.35 | 8.6 | 8.8 | 8.9 | not effective to decrease the bacterial count | 7.9 | 8.3 | 8.8 | 8.9 | not effective to decrease the bacterial count
6 | N#C[C@@H]1CC[C@@H]2CN1C(=O)N2OS(=O)(=O)[O-].[Na+] [Compound A, Sodium salt of trans-7-oxo-6-sulphooxy-1,6-diazabicyclo[3.2.1]-octane-2-carbonitrile] | 8.3 | 8.5 | 8.8 | 9 | not effective to decrease the bacterial count | 8 | 8.2 | 8.5 | 8.8 | not effective to decrease the bacterial count
7 | O=C1N2C[C@@H](CC[C@H]2c2nnc([C@@H]3CCCN3)o2)N1OS(=O)(=O)O [Compound J, trans-sulphuric acid mono-[2-(5-((S)-pyrrolidin-2-yl)-[1,3,4]-oxadiazol-2-yl)-7-oxo-1,6-diazabicyclo[3.2.1]-octan-6-yl] ester] | 8.35 | 8.5 | 8.8 | 9.2 | not effective to decrease the bacterial count | 8.35 | 8.5 | 8.8 | 9.2 | not effective to decrease the bacterial count
8 | O=C1N2C[C@@H](CC[C@H]2c2nnc(C3CCNCC3)o2)N1OS(=O)(=O)O [Compound C] | 8.2 | 8.9 | 9 | 9.5 | not effective to decrease the bacterial count | 8.1 | 8.15 | 8.65 | 8.9 | not effective to decrease the bacterial count
9 | O=C(NOC[C@@H]1CCCN1)[C@@H]1CC[C@@H]2CN1C(=O)N2OS(=O)(=O)O [Compound F, (2S,5R)-7-Oxo-N-[(2S)-pyrrolidin-2-ylmethoxy]-6-(sulfooxy)-1,6-diaza bicyclo[3.2.1]octane-2-carboxamide] | 8.4 | 8.7 | 8.9 | 9.1 | not effective to decrease the bacterial count | 8 | 8.2 | 8.35 | 8.7 | not effective to decrease the bacterial count
10 | C[C@@H](O)[C@H]1C(=O)N2C(C(=O)O)=C(SCCN=CN)C[C@H]12 [Imipenem, reference compound] | 8.35 | 8.78 | 8.88 | 9.09 | – | 8.28 | 8.7 | 8.9 | 9.2 | –
11 | O=C(NNC(=O)[C@@H]1CC[C@@H]2CN1C(=O)N2OS(=O)(=O)O)[C@@H]1CCNC1 [Compound G, (2S,5R)-7-Oxo-6-sulphooxy-2-[N′—((R)-pyrrolidine-3-carbonyl)-hydrazinocarbonyl]-1,6-diaza-bicyclo[3.2.1]octane] | 8.36 | 8.78 | 8.9 | 9.2 | not effective to decrease the bacterial count | 7.95 | 8.05 | 8.7 | 8.98 | not effective to decrease the bacterial count
12 | C[C@H](N)c1nnc([C@@H]2CC[C@@H]3CN2C(=O)N3OS(=O)(=O)O)o1 [Compound I, trans-sulphuric acid mono-[2-(5-((S)-1-amino-ethyl)-[1,3,4]-oxadiazol-2-yl)-7-oxo-1,6-diazabicyclo[3.2.1]-octan-6-yl] ester] | 8.36 | 8.79 | 8.9 | 9.1 | not effective to decrease the bacterial count | 8.36 | 8.79 | 8.9 | 9.1 | not effective to decrease the bacterial count
